Data taken from patent US8236346B2, “Method for reducing amyloid deposition, amyloid neurotoxicity, and microgliosis with (-)-nilvadipine enantiomer” (Alzheimer's Institute of America, Inc, priority 2007, dated 2012).

Key:
[1] = test system: N9 murine microglial cells; assay: LPS-induced microglial activation, TNF-α production by ELISA; assay type: cell-based
Method: N9 murine microglial cells are well characterized scavenger murine microglial clones derived from embryonic mouse brain. The extent of microglial activation was determined by TNF-α production (pg/ml) measured by ELISA. […] Microglial cells in the presence of 1 μg/ml LPS produced about 820 pg/ml TNF-α, an […] from the control cells and nilvadipine-administered cells.

[2] = test system: Aβ deposition (amyloid burden); assay: Chronic administration of nilvadipine on Aβ deposition (amyloid burden), 4G8 immunostaining; assay type: in vivo, TgAPPsw mice
Method: The 4G8 immunostaining technique was chosen for determining the Aβ burden because of its robust signal and optimal results for quantitative analysis of Aβ deposition. Briefly, paraffin sections were subjected to immunohistochemistry as described previously (Nakagawa, Y et al., Exp. Neurol., 163:244-252, 2000). Sections were deparaffinized in xylene, hydrated in a series of ethanol and deionized water, and subjected to an antigen retrieval step by immersing sections in 88% formic acid for 60 min before immunohistochemistry for Aβ. Sections were washed in water, and endogenous peroxidases were quenched using a freshly prepared mixture of methanol (150 ml) plus hydrogen peroxide (33%, 30 ml). The avidin-biotin complex method was used according to the instructions of the vendor (Vector Laboratories, Burlingame, Calif.). Amyloid burden was assessed by determining the percentage of the brain region that stained positive for Aβ. Negative controls included the application of the same immunohistochemistry protocol to sections, except preimmune serum was applied instead of primary antibody.

[3] = test system: human neuronal progenitor cells (HNPC); assay: Aβ neurotoxicity, LDH release; assay type: cell-based; conditions: 100 nM nilvadipine with 30 μM AgAβ, three days
Method: Cyclic AMP (1 mM) (Sigma) was added to the culture medium and the HNPC cells were incubated at 37° C. for 48 hours or more under serum free conditions. This medium allowed differentiation of the progenitors into cells of neuronal lineage, as was confirmed by the staining of most of the cells with antibodies against the microtubule-associated protein, MAP-2. Neurotoxicity was assessed by measuring the amount of lactic dehydrogenase (LDH; an intracellular enzyme found in all cells) released from the cells.

[4] = test system: human glioblastoma cells transfected with APPsw; assay: APP processing, Aβ1-40 production by ELISA; assay type: cell-based
[5] = test system: CD45+ microglia; assay: Chronic administration of nilvadipine on microglial activation, CD45 immunostaining; assay type: in vivo, TgAPPsw mice
Method: Briefly, immunohistochemistry for CD45, a specific marker of microglia, was conducted on the cryostat brain sections. CD45-positive microglial cells were immunolocalized by incubation with a mouse monoclonal antibody against CD45 (Chemicon International) overnight at 4° C., followed by application of a biotinylated rabbit anti-mouse secondary antibody for 30 minutes. Detection of CD45 was completed with diaminobenzidine chromogen substrate, which produces a brown cell surface stain on CD45-positive microglial cells.

[6] = molecular target: L-type calcium channels (Rattus norvegicus, UniProt P22002); assay: FPL64176 induced vasoconstriction in rat aortae; conditions: 100 nM, 2 min prior to 1 μM FPL64176
[7] = test system: 7W WT APP751 Chinese hamster ovary cells; assay: Aβ1-40 and Aβ1-42 production by ELISA; assay type: cell-based; conditions: 24 hours treatment
Method: Production of Aβ1-40 and Aβ1-42 in the culture medium was measured by using a commercially available human Aβ1-40 ELISA (Biosource, CA) and commercially available human Aβ1-42 ELISA (Biosource, CA), respectively.

[8] = test system: Aβ deposits; conditions: Lim et al., J. Neurosci. 2000; cited from earlier work

L-type calcium channels, sequence (P22002 whole entry): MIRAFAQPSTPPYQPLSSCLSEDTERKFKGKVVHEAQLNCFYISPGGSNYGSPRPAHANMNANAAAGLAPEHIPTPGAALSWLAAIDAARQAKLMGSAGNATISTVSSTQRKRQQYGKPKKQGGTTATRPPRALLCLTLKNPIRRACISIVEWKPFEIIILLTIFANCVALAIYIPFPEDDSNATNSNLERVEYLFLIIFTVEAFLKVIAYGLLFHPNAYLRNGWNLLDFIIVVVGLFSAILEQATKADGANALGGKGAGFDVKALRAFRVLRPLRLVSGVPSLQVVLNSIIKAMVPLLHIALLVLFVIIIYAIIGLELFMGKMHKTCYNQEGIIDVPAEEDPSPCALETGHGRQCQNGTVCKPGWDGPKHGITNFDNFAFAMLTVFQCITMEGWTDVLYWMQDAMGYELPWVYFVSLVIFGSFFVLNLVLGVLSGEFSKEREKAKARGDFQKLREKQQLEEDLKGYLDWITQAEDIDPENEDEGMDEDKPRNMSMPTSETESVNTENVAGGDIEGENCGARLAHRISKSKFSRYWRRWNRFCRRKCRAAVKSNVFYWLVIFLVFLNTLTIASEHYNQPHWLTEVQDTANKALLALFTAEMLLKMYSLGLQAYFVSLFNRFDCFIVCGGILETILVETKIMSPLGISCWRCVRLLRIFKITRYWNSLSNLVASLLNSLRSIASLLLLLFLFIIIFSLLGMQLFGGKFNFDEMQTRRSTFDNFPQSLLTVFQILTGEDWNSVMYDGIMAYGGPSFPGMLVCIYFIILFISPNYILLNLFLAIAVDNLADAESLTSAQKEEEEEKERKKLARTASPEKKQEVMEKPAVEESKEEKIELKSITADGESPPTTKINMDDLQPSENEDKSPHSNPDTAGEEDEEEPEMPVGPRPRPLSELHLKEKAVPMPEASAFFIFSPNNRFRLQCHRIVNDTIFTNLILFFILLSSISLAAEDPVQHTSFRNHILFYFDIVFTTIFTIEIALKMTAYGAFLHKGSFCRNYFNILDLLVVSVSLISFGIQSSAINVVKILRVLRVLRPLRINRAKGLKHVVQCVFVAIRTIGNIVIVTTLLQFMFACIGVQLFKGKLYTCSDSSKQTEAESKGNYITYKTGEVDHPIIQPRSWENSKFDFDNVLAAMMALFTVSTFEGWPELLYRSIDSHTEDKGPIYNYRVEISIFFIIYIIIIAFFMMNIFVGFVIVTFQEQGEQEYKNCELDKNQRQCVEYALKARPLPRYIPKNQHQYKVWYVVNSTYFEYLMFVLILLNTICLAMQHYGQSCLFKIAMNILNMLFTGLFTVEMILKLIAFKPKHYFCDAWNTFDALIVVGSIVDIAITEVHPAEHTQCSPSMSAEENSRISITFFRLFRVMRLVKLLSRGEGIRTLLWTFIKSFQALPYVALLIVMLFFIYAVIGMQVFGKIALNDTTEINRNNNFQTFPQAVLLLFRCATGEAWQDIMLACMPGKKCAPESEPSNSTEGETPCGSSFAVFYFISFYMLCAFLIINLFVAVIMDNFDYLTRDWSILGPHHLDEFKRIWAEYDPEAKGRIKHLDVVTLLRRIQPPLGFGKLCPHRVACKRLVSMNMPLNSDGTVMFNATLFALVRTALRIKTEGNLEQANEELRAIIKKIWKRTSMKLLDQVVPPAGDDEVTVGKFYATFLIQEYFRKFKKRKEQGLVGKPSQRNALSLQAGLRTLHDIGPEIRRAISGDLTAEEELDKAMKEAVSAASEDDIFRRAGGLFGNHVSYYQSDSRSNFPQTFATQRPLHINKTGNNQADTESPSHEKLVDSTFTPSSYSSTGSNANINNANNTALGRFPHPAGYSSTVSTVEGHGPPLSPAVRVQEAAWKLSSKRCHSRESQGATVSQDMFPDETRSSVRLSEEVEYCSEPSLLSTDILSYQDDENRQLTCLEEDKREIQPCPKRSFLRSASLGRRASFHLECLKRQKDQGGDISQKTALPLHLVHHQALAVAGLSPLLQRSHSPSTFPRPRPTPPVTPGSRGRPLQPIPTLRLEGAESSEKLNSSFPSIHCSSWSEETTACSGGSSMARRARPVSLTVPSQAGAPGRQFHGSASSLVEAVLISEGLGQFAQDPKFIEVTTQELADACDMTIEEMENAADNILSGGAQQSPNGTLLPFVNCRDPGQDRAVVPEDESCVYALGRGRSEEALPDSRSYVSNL
L-type calcium channels, sequence (P54290 25-944 partner limits assumed): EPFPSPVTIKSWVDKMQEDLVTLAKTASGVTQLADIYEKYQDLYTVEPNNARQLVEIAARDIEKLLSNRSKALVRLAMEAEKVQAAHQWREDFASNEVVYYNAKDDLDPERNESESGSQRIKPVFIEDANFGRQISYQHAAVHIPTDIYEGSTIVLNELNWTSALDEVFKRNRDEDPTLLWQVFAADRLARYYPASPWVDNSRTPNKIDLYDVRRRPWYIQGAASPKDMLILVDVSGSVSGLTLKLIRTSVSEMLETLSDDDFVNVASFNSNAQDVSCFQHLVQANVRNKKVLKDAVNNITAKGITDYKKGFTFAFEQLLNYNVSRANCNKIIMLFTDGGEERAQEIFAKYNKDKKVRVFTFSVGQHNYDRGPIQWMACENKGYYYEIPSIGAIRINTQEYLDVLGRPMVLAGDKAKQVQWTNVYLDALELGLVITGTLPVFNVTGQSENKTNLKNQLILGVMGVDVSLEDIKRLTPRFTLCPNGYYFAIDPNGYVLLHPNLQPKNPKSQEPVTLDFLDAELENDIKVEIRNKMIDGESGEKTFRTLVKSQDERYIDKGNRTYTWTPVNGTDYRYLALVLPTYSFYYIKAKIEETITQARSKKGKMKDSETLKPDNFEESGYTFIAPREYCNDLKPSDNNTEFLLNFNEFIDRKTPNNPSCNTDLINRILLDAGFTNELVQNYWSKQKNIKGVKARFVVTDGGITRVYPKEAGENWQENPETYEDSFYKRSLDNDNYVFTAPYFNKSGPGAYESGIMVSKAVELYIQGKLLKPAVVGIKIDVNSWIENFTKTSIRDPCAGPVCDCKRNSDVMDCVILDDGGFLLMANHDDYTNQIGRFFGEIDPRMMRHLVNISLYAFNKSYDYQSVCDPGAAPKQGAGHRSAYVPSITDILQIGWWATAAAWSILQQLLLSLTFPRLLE
L-type calcium channels, sequence (P54290 945-1091 partner limits assumed): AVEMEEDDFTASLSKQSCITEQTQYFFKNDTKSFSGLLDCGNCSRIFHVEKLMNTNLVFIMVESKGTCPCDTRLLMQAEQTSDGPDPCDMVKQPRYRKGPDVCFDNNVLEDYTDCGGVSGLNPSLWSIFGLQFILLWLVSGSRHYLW

## COC(=O)C1=C(C#N)NC(C)=C(C(=O)OC(C)C)C1c1cccc([N+](=O)[O-])c1 (racemic) [nilvadipine, isopropyl-3-methyl-2-cyano-1,4-dihydro-6-methyl-4-(m-nitrophenyl)-3,5-pyridine-dicarboxylate]
[1]; 50 nM nilvadipine, no LPS
  TNF-α production: about 40 pg/ml
[1]; 1 μg/ml LPS plus 50 nM nilvadipine, 24 hours
  TNF-α production: about 670 pg/ml
[1]; 1 μg/ml LPS plus 500 nM nilvadipine, 24 hours
  TNF-α production: about 610 pg/ml
[2]; CA1 region of the hippocampus
  reduction of Aβ burden compared to controls: about 52%
[2]; CA2-CA3 region of the hippocampus
  reduction of Aβ burden compared to controls: about 50%
[2]; motor cortex
  reduction of Aβ burden compared to controls: about 58%
[2]; parietal cortex
  reduction of Aβ burden compared to controls: about 65%
[2]; pyriform cortex
  reduction of Aβ burden compared to controls: about 58%
[2]; visual cortex
  reduction of Aβ burden compared to controls: about 62%
[3]
  decrease of LDH release: about 44%
[4]; 50 nM, 24 hours
  reduction of Aβ1-40 production: about 9%
[4]; 50 nM, 48 hours
  reduction of Aβ1-40 production: about 18%
[4]; 250 nM, 24 hours
  reduction of Aβ1-40 production: about 15%
[4]; 250 nM, 48 hours
  reduction of Aβ1-40 production: about 5%
[5]; hippocampus
  reduction of microglial activation compared to controls: about 33%
[5]; motor cortex
  reduction of microglial activation compared to controls: about 27%
[5]; parietal cortex
  reduction of microglial activation compared to controls: about 43%

## COC(=O)C1=C(C#N)NC(C)=C(C(=O)OC(C)C)[C@H]1c1cccc([N+](=O)[O-])c1 [(+)-nilvadipine]
[6]
  effect on FPL64176 induced vasoconstriction: completely antagonizes
[7]; dose response
  effect on Aβ1-40 production: dose dependently inhibit
[7]; low dose
  effect on Aβ1-42 production: slightly stimulate

## CC(C)Cc1ccc(C(C)C(=O)O)cc1 (stereo not drawn) [ibuprofen]
[8]
  effect on Aβ deposits, astrocytosis and dystrophic neuritis: reduction in Aβ deposits, astrocytosis, and dystrophic neuritis
